Measurements: PubChem BioAssay AID330 (DTP/NCI, 2004)
Toxic doses and inconclusive results are not listed. The calls were made as follows: active = survival T/C of 150% or more; inactive = T/C below 125% in these data. Numbered stars: 1 amine (or outer) side, 2 acyl side, 3 side chain; on linkers, the order of the positions; unused ones are H or OH. Bridge positions count the residues as written; N and C are the ends. Square brackets hold non-standard residues; d marks the D form. Peptide text beside a SMILES is read from it. I, II: the chains in the order shown. Actinocin(1to9) = Cc1c2oc3c(C)ccc(C(=O)[*:2])c3nc-2c(C(=O)[*:1])c(N)c1=O; NMeV = CN[CH](C(=O)O)C(C)C; Aze = O=C(O)[CH]1CCN1; Sar = CNCC(=O)O

System: P388 leukemia ip, CD2F1 mice, survival T/C
Test: NCI In Vivo Anticancer Drug Screen. Data for tumor model P388 Leukemia (intraperitoneal) in CD2F1 (CDF1) mice
Settings: endpoint: median survival time, higher = longer survival
Method in brief: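 Mice carrying the transplanted tumor received test compound or vehicle. Survival was recorded in each group, and the value is the treated-group measurement divided by that of the vehicle-treated control group.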

Measured: T/C

Cc1ccc(/C=C2/C(=O)N(c3ccccc3)N=C2c2ccccc2)cc1
inactive: dose: 1.87 mg/kg/injection, schedule: Q01DX005 (ip), vehicle: saline with Tween-80 110 % of control | dose: 3.75 mg/kg/injection, schedule: Q01DX005 (ip), vehicle: saline with Tween-80 113 % of control | dose: 3.75 mg/kg/injection, schedule: Q01DX005 (ip), vehicle: saline 95 % of control | dose: 7.5 mg/kg/injection, schedule: Q01DX005 (ip), vehicle: saline with Tween-80 113 % of control | dose: 15.0 mg/kg/injection, schedule: Q01DX005 (ip), vehicle: saline with Tween-80 110 % of control | dose: 15.0 mg/kg/injection, schedule: Q01DX005 (ip), vehicle: saline 100 % of control | dose: 30.0 mg/kg/injection, schedule: Q01DX005 (ip), vehicle: saline with Tween-80 109 % of control | dose: 60.0 mg/kg/injection, schedule: Q01DX005 (ip), vehicle: saline with Tween-80 108 % of control

Cc1ccc(S(=O)(=O)N/N=C/c2c(-c3ccccc3)nc3n2CCS3)cc1
inactive: dose: 100.0 mg/kg/injection, schedule: Q01DX001 (ip), vehicle: Klucel (hydroxypropylcellulose) (HPC) 99 % of control | dose: 200.0 mg/kg/injection, schedule: Q01DX001 (ip), vehicle: Klucel (hydroxypropylcellulose) (HPC) 93 % of control | dose: 400.0 mg/kg/injection, schedule: Q01DX001 (ip), vehicle: Klucel (hydroxypropylcellulose) (HPC) 94 % of control

N=Cc1c(O)n(C2CCCCC2)c(=O)n(C2CCCCC2)c1=O
inactive: dose: 100.0 mg/kg/injection, schedule: Q01DX009 (ip), vehicle: saline with Tween-80 100 % of control | dose: 200.0 mg/kg/injection, schedule: Q01DX009 (ip), vehicle: saline with Tween-80 95 % of control | dose: 400.0 mg/kg/injection, schedule: Q01DX009 (ip), vehicle: saline with Tween-80 100 % of control

COc1ccc(C(O)(CCN2CCOCC2)c2ccc3c(c2)OCO3)cc1 (centres undefined)
inactive: dose: 50.0 mg/kg/injection, schedule: Q01DX005 (ip), vehicle: Klucel (hydroxypropylcellulose) (HPC) 90 % of control | dose: 100.0 mg/kg/injection, schedule: Q01DX005 (ip), vehicle: Klucel (hydroxypropylcellulose) (HPC) 91 % of control

O=C1CCCc2ccc([N+](=O)[O-])cc21
inactive: dose: 25.0 mg/kg/injection, schedule: Q01DX009 (ip), vehicle: suspension in saline 98 % of control | dose: 50.0 mg/kg/injection, schedule: Q01DX009 (ip), vehicle: suspension in saline 98 % of control | dose: 100.0 mg/kg/injection, schedule: Q01DX009 (ip), vehicle: suspension in saline 93 % of control | dose: 200.0 mg/kg/injection, schedule: Q01DX009 (ip), vehicle: suspension in saline 93 % of control

Cc1c2oc3c(C)ccc(C(=O)NC4C(=O)NC(C(C)C)C(=O)N5CCCC5C(=O)N(C)CC(=O)N(C)C(C(C)C)C(=O)OC4C)c3nc-2c(C(=O)NC2C(=O)NC(C(C)C)C(=O)N3CCC3C(=O)N(C)CC(=O)N(C)C(C(C)C)C(=O)OC2C)c(N)c1=O (centres undefined) (I: TV[Aze][Sar][NMeV] / II: TVP[Sar][NMeV]; ester I:1-I:C, II:1-II:C; linker I:N-II:N via Actinocin(1to9); configuration not given here)
inactive: dose: 0.08 mg/kg/injection, schedule: Q04DX003 (ip), vehicle: saline 96 % of control | dose: 0.15 mg/kg/injection, schedule: Q04DX003 (ip), vehicle: saline 102 % of control | dose: 0.3 mg/kg/injection, schedule: Q04DX003 (ip), vehicle: saline 105 % of control | dose: 12.5 micrograms/kg/injection, schedule: Q01DX009 (ip), vehicle: saline 123 % of control | dose: 100.0 micrograms/kg/injection, schedule: Q01DX009 (ip), vehicle: water 89 % of control | dose: 250.0 micrograms/kg/injection, schedule: Q01DX009 (ip), vehicle: saline + alcohol 100 % of control | dose: 400.0 micrograms/kg/injection, schedule: Q01DX009 (ip), vehicle: saline 86 % of control
active: dose: 0.05 mg/kg/injection, schedule: Q01DX009 (ip), vehicle: water 214 % of control | dose: 12.5 micrograms/kg/injection, schedule: Q01DX009 (ip), vehicle: water 167 % of control | dose: 19.4 micrograms/kg/injection, schedule: Q01DX009 (ip), vehicle: saline + alcohol 150 % of control | dose: 25.0 micrograms/kg/injection, schedule: Q01DX009 (ip), vehicle: water 200 % of control | dose: 32.4 micrograms/kg/injection, schedule: Q01DX009 (ip), vehicle: saline + alcohol 165 % of control | dose: 50.0 micrograms/kg/injection, schedule: Q01DX009 (ip), vehicle: saline 155 % of control | dose: 50.0 micrograms/kg/injection, schedule: Q01DX009 (ip), vehicle: water 266 % of control | dose: 54.0 micrograms/kg/injection, schedule: Q01DX009 (ip), vehicle: saline + alcohol 177 % of control | dose: 90.0 micrograms/kg/injection, schedule: Q01DX009 (ip), vehicle: saline + alcohol 186 % of control | dose: 100.0 micrograms/kg/injection, schedule: Q01DX009 (ip), vehicle: saline 171 % of control | dose: 150.0 micrograms/kg/injection, schedule: Q01DX009 (ip), vehicle: saline + alcohol 238 % of control | dose: 200.0 micrograms/kg/injection, schedule: Q01DX009 (ip), vehicle: saline 250 % of control
